Data as given in ChEMBL document CHEMBL5303304, “EUbOPEN Chemogenomics Library - IncuCyte” (2023).

Tests used:
Type in all cases: toxicity, cell-based
HEK-293T = test: Incucyte cell viability with HEK293T; settings: human, 10 µM, compound concentration 10 uM
Fibroblast = test: Incucyte cell viability with human fibroblast; settings: 10 µM, compound concentration 10 uM
U2OS = test: Incucyte cell viability with U2OS; settings: human, 10 µM, compound concentration 10 uM
Further: unitless GR value; below 1 slowed growth and below 0 cell loss.

Row | SMILES | Growth Rate (HEK-293T; 6 h, replicate number 1) | Growth Rate (HEK-293T; 6 h, replicate number 2) | Growth Rate (HEK-293T; 12 h, replicate number 1) | Growth Rate (HEK-293T; 12 h, replicate number 2) | Growth Rate (HEK-293T; 18 h, replicate number 1) | Growth Rate (HEK-293T; 18 h, replicate number 2) | Growth Rate (HEK-293T; 24 h, replicate number 1) | Growth Rate (HEK-293T; 24 h, replicate number 2) | Growth Rate (Fibroblast; 0 h, replicate number 1) | Growth Rate (Fibroblast; 6 h, replicate number 2) | Growth Rate (Fibroblast; 12 h, replicate number 1) | Growth Rate (Fibroblast; 18 h, replicate number 1) | Growth Rate (Fibroblast; 18 h, replicate number 2) | Growth Rate (Fibroblast; 24 h, replicate number 1) | Growth Rate (Fibroblast; 24 h, replicate number 2) | Growth Rate (U2OS; 12 h, replicate number 1) | Growth Rate (U2OS; 18 h, replicate number 1) | Growth Rate (U2OS; 12 h, replicate number 2) | Growth Rate (U2OS; 24 h, replicate number 1) | Growth Rate (U2OS; 24 h, replicate number 2) | also measured
1 | CCCCc1oc2ccccc2c1C(=O)c1cc(I)c(OCCN(CC)CC)c(I)c1.Cl [AMIODARONE HYDROCHLORIDE] | 0.31 | -0.04 | 0.36 | -0.11 | 0.5 | 0.1 | 0.45 | 0.24 | 0.24 | -0.16 | 0.4 | -0.02 | -0.44 | -0.01 | -0.43 | 0.98 | 0.77 | – | – | – | Growth Rate (HEK-293T; 0 h, replicate number 2): -0.99; Growth Rate (Fibroblast; 12 h, replicate number 2): -0.27; Growth Rate (U2OS; 0 h, replicate number 1): 0.24; Growth Rate (U2OS; 6 h, replicate number 1): 0.43
2 | O=C(Nc1cccc(Nc2nccc(Nc3cccc(C(F)(F)F)c3)n2)c1)C1CC1 [ANILINOPYRIMIDINE1] | -0.91 | -0.97 | -0.71 | -0.79 | -0.46 | -0.54 | -0.29 | -0.38 | -1 | -1 | -0.84 | -0.68 | – | -0.48 | -0.55 | -0.21 | -0.21 | -0.42 | -0.08 | -0.1 | Growth Rate (Fibroblast; 6 h, replicate number 1): -0.79; Growth Rate (Fibroblast; 12 h, replicate number 2): -0.73; Growth Rate (U2OS; 0 h, replicate number 1): -0.01; Growth Rate (U2OS; 0 h, replicate number 2): 0.91; Growth Rate (U2OS; 6 h, replicate number 1): -0.16; Growth Rate (U2OS; 6 h, replicate number 2): -0.36; Growth Rate (U2OS; 18 h, replicate number 2): -0.3
3 | Cc1nnc2n1-c1sc(CCC(=O)N3CCOCC3)cc1C(c1ccccc1Cl)=NC2 [APAFANT] | – | – | 0.78 | – | – | – | – | – | – | – | – | 0.73 | – | 0.8 | – | 0.67 | 0.88 | 0.76 | 0.88 | 0.98 | Growth Rate (HEK-293T; 0 h, replicate number 2): -0.56; Growth Rate (Fibroblast; 0 h, replicate number 2): -0.81; Growth Rate (U2OS; 0 h, replicate number 1): 0.87; Growth Rate (U2OS; 6 h, replicate number 1): 0.58; Growth Rate (U2OS; 6 h, replicate number 2): 0.99
4 | CC(C)[C@H](C(=O)Nc1ccc(C(=O)NO)cc1)c1ccccc1 [AR-42] | – | – | – | – | – | 0.59 | 0.89 | 0.37 | 0.71 | 0.66 | -1 | -0.41 | 0.42 | 0.78 | 0.61 | 0.83 | 0.46 | 0.96 | 0 | 0.11 | Growth Rate (HEK-293T; 0 h, replicate number 1): -0.15; Growth Rate (HEK-293T; 0 h, replicate number 2): 0.49; Growth Rate (Fibroblast; 0 h, replicate number 2): 0.62; Growth Rate (Fibroblast; 12 h, replicate number 2): 0.61; Growth Rate (U2OS; 6 h, replicate number 2): 0.73; Growth Rate (U2OS; 18 h, replicate number 2): 0.44
5 | O=C(Nc1ccc(OC(F)(F)Cl)cc1)c1cnc(N2CC[C@@H](O)C2)c(-c2ccn[nH]2)c1 [ASCIMINIB] | -0.71 | -0.37 | -0.32 | -0.17 | -0.06 | 0.07 | 0.02 | 0.19 | -1 | -0.75 | 0.06 | 0.17 | 0.46 | 0.35 | 0.63 | – | – | 0.61 | 0.95 | – | Growth Rate (Fibroblast; 0 h, replicate number 2): 0.89; Growth Rate (Fibroblast; 6 h, replicate number 1): 0.15; Growth Rate (Fibroblast; 12 h, replicate number 2): 0.12; Growth Rate (U2OS; 0 h, replicate number 2): 0.44; Growth Rate (U2OS; 18 h, replicate number 2): 0.82
6 | CCN1CCN(Cc2ccc(NC(=O)Nc3ccc(Oc4cc(NC)ncn4)cc3)cc2C(F)(F)F)CC1 [AST-487] | – | -0.54 | – | -0.4 | – | -0.29 | – | -0.21 | 0.93 | – | – | – | 0.81 | – | 0.4 | – | 0.36 | 0.86 | 0.19 | 0.08 | Growth Rate (HEK-293T; 0 h, replicate number 1): -0.91; Growth Rate (Fibroblast; 6 h, replicate number 1): -1; Growth Rate (U2OS; 0 h, replicate number 2): -0.84; Growth Rate (U2OS; 18 h, replicate number 2): 0.41
7 | C[C@@H]1CN(CC(=O)N2CC(C)(C)c3nc(CO)c(Cc4ccc(F)cc4)cc32)[C@@H](CN2CCOC[C@H]2C)CN1 [ASTX-660] | – | – | – | – | 0.97 | – | 0.89 | – | – | – | – | – | – | – | – | – | – | – | 0.98 | – | Growth Rate (HEK-293T; 0 h, replicate number 1): 0.18; Growth Rate (Fibroblast; 0 h, replicate number 2): 0.14
8 | O=C(NC1CCNCC1)c1n[nH]cc1NC(=O)c1c(Cl)cccc1Cl [AT-7519] | -0.3 | -0.74 | -0.27 | -0.63 | -0.2 | -0.51 | -0.15 | -0.4 | -1 | 0.01 | 0.38 | 0.17 | -0.23 | 0.08 | -0.17 | 0.18 | 0.05 | 0.4 | -0.08 | 0.03 | Growth Rate (HEK-293T; 0 h, replicate number 1): -0.17; Growth Rate (Fibroblast; 0 h, replicate number 2): -0.43; Growth Rate (Fibroblast; 6 h, replicate number 1): 0.78; Growth Rate (Fibroblast; 12 h, replicate number 2): -0.1; Growth Rate (U2OS; 6 h, replicate number 1): 0.44; Growth Rate (U2OS; 6 h, replicate number 2): 0.71
9 | O=C(Nc1c[nH]nc1-c1nc2cc(CN3CCOCC3)ccc2[nH]1)NC1CC1 [AT-9283] | -0.72 | -0.8 | -0.57 | -0.59 | -0.46 | -0.43 | -0.38 | -0.3 | – | – | – | 0.66 | 0.81 | 0.09 | 0.43 | 0.31 | -0.05 | 0.78 | -0.18 | -0.09 | Growth Rate (U2OS; 0 h, replicate number 1): -1; Growth Rate (U2OS; 0 h, replicate number 2): 0.73; Growth Rate (U2OS; 18 h, replicate number 2): 0.14
